# Test results reported in US20230295163A1, “TETRACYCLIC DERIVATIVE, METHOD FOR PREPARING SAME AND USE THEREOF IN MEDICINE” (ZHEJIANG HISUN PHARMACEUTICAL CO., LTD., priority 2020, published 2023).
# Test system: NCI-H358 cell xenograft tumor
# Test: Pharmacodynamics in NCI-H358 cell BALB/c nude mouse subcutaneous xenograft model
# Format: in vivo, BALB/c nude mice
# Settings: 10 mg/kg po qd
# Experimental: This test is used to evaluate the anti-tumor effect and safety of the compound 17 of the present disclosure in the animal model of BALB/c nude mouse subcutaneously transplanted with NCI-H358 (human non-small cell lung cancer) cell line after oral intragastric administration for 14 days, once a day.
# An appropriate amount of compound 17 was weighed into a 10 mL centrifuge tube, added with an appropriate amount of DMA, shaken by vortex for complete dissolution of the solid matter, then added with an appropriate volume of 30% solutol HS 15, shaken by vortex, mixed well, and added with normal saline to make the ratio of DMA:30% solutol HS 15:saline 10:10:80 (v/v/v), for a preparation at a concentration of 1 mg/mL for administration.
# About 3.7×10^6 NCI-H358 cells were subcutaneously inoculated on the right side of the back of female BALB/c nude mice. When the average volume of the tumor reached about 100-150 mm^3, the mice were randomly divided into 2 groups according to the size of the tumor, 6 mice in each group.
# After tumor inoculation, a subcutaneous xenograft tumor model was established. Each treatment group and the vehicle control group were orally intragastrically administered for 14 days. The animals were weighed daily, and the tumor volume was measured twice a week.
# Formulas for calculating the tumor volume (TV), relative tumor proliferation rate (T/C), relative tumor growth inhibition rate (TGI) and tumor inhibition rate (IR) are as follows: • (1) TV (tumor volume)=½×a×b^2, where a and b represent the length and width of the tumor, respectively; • (2) T/C (relative tumor proliferation rate, %)=TRTV/CRTV×100%, where TRTV is the RTV of the treatment group, and CRTV is the RTV of the control group; • (3) TGI % (tumor growth inhibition rate)=(1−T/C)×100%; where T and C are the relative tumor volumes at a specific time point in the treatment group and the control group, respectively. • (4) IR (%) (tumor weight inhibition rate)=(1−TWt/TWc)×100%, where TWt is the tumor weight in the treatment group, and TW is the tumor weight in the control group.
smiles,measurement,setting,value
"C=CC(=O)N1C[C@@H]2C(=O)N(C)c3c(c4cc(Cl)c(-c5c(O)cccc5F)nc4n(-c4c(SC)ccnc4C(C)C)c3=O)N2C[C@H]1C (single isomer, unassigned) [Compound 17]",IR (tumor weight inhibition rate),14 days,90.8%
same,Tumor weight (x ± S),14 days,0.0157 ± 0.0033 g
same,T/C (%),Day 15 after administration,15.6%
same,TGI (%),Day 15 after administration,84.4%
same,Tumor volume (x ± S),"Day 15 after administration, mean ± standard error",52 ± 15 mm^3
same,Body weight change,within 14 days,without significant body weight change
same,Growth inhibitory effect on the tumor model (in words),within 14 days,obvious growth inhibitory effect
